The record followed here is US7321027B2, “Small technetium-99m and rhenium labeled agents and methods for imaging tumors” (President and Fellows of Harvard College, priority 2000, dated 2008).

Molecules are shown by their SMILES.

Data set [1] concerns MCF-7 human breast cancer cell line. The data set is described as follows: In-vitro tumor-cell uptake, breast cancer cells. The settings on record: 37° C., MCF-7 cell line. Format: cell-based. How it is done: In-Vitro Tumor-Uptake Studies. Tumor-cell uptake studies in B16/F0 murine melanoma cells were performed with complexes Tc-(Compound A-D and H-M) at 37° C. and 4° C. Additionally, tumor-cell uptake of complex Tc-(Compound A) was investigated in another rapidly dividing MCF-7 human breast cancer cell line.
In-Vitro Cell Studies. […] After being washed with 12 mL Dulbecco's Phosphate-Buffered Saline (PBS) (Gibco), pH 7.2 (Ca^2+- and Mg^2+-free; g/L KCl, 0.20; KH2PO4, 0.20; NaCl, 8.00; Na2HPO4, 1.15), the cells were counted and resuspended in 8 mL S-MEM (Gibco) (Ca^2+ free, with reduced Mg^2+ content) and stored at 4° C. until use.
For in-vitro tumor-cell accumulation studies, 5×10^6 cells in polypropylene test tubes were incubated at 37° C. or 4° C., with intermittent agitation with 1-2 μCi (5 μL) ^99mTc-complex Tc-(Compound A-D) in a total volume of 350 μL S-MEM. […] Both fractions were counted for radioactivity in a γ-counter (WALLAC, 1480 WIZARD 3″™). The amount of supernatant in the cell pellet was determined to be <1% in separate experiments. The percentage cell uptake of the ^99mTc-complex was calculated as: % uptake=[cpm(pellet)]/[cpm(pellet)+cpm(supernatant)]×100

Data set [2] relates to B16/F0 murine melanoma. Kind of data set: In-vivo tumor uptake and biodistribution. More on the design: species or system C57B16 mice. The settings on record: mouse, in vivo. How it is done:
In-Vivo Tumor Uptake. To study the tumor uptake of ^99mTc-complexes, Tc-(Compound A-D and J-K), in vivo, biodistribution experiments at 1 h and 6 h after their administration were carried out in C57B16 mice with palpable B16 melanoma nodules. The biodistribution data including melanoma/nontumor (M/NT) ratios for selected organs are summarized in Table 4 and 5 as percentage injected dose per gram ([…]).
Animal Studies. All animal experiments were performed in compliance with the Principles of Laboratory Animal Care (NIH publication #85-23, revised 1985). Biodistribution studies and tumor-uptake measurements were performed in C57B16 mice (15 to 20 g) bearing the B16/F0 murine melanoma on the hind limb. See for example the studies described in, which are hereby incorporated by reference, Brandau, W.; Niehoff, T.; Pulawski, P.; Jonas, M.; Dutschka, K.; Sciuk, J.; Coenen, H. H.; Schober, O. Structure Distribution Relationship of Iodine-123-Iodobenzamides as Tracers for the Detection of Melanotic Melanoma. J. Nucl. Med. 1996, 37, 1865-1871; Mohanmmed, A.; Nicholl, C.; Titsch, U.; Eisenhut, M. Radiojodinated N-(Alkylaminoalkyl)-Substituted 4-Methoxy-, 4-Hydroxy-, and 4-Aminobenzamides: Biological Investigations for the Improvement of Melanoma-Imaging Agents. Nucl. Med. Biol. 1997, 24, 373-380; Titsch, U.; Mohammed, A.; Wagner, S.; Oberdorfer, F.; Eisenhut, M. Syntheses of N-(2-Diethylaminoethyl)benzamides Suitable for ^99mTc Complexation. J. Labelled Compd. Radiopharm. 1997, 40, 416-418; Dittmann, H.; Coenen, H. H.; Zölzer, F.; Dutschka, K.; Brandau, W.; Streffer, C. In Vitro Studies on the Cellular Uptake of Melanoma Imaging Aminoalkyl-iodobenzamide Derivatives (ABA). Nucl. Med. Biol. 1999, 26, 51-56; and Michelot, J. M.; Moreau, M. F. C.; Veyre, A. J.; Bonafous, J. F.; Bacin, F. J.; Madelmont, J. C.; Bussiere, F.; Souteyrand, P. A.; Mauclaire, L. P.; Chossat, F. M.; Papon, J. M.; Labarre, P. G.; Kauffmann, Ph.; Plagne, R. J. Phase II Scintigraphic Clinical Trial of Malignant Melanoma and Metastases with Iodine-123-N-(2-Diethylaminoethyl 4-Iodobenzamide). J. Nucl. Med. 1993, 34, 1260-1266. The tumor cells (B16/F0), obtained from ATCC, were washed with PBS and transplanted subcutaneously on the left hind flank by an inoculation of 0.5×10^6 cells (0.1 mL). Ten to 14 days later the animals developed palpable tumor nodules 3 to 5 mm in diameter. The biodistribution studies were carried out by tail-vein injection of 25 to 30 μCi (0.05 to 0.1 mL) of the ^99mTc-labeled complexes Tc-(Compound A-D, H, J, K or M). At the designated time after tail-vein administration, the animals were weighed and sacrificed. The organs and tumors were harvested and, when appropriate, blotted dry, weighed, and counted in a gamma counter along with technetium-99m standards of the injected dose. The results are expressed as % ID/g tissue (Table 4 and 5)

Turning to `CCN(CC)CCN1CC[S][99Tc]2(=[O])[S]CC[N]2C(=O)C1` (centres unmarked) [Tc-(Compound A)], the maximum cell uptake in data set [1] was found to be 6%. `CCCCN(CCCC)CCN1CC[S][99Tc]2(=[O])[S]CC[N]2C(=O)C1` (centres unmarked) [Tc-(Compound B)]: in data set [2], the mel/lung ratio turned out to be 2.1.
